Data taken from ChEMBL document CHEMBL4814006, “Novel amino substituted tetracyclic imidazo[4,5-b]pyridine derivatives: Design, synthesis, antiproliferative activity and DNA/RNA binding study” (Eur J Med Chem, 2021).
Values belong to the molecule of their own block, whether it stands above or below them. The source made the active and inactive calls. No cut-off for these calls is given here.

Assays:
[1] = tested on: Quadruplex DNA; assay: Binding affinity to human Tel22 G quadruplex DNA assessed as ratio of fluorescence intensity of compound-polynucleotide complex to fluorescence intensity of compound in sodium cacodylate buffer at pH 7 at binding stoichiometry ratio of 1:1 by fluorescence spectroscopy; assay type: nucleic-acid assay
[2] = tested on: Poly(dA-dT)oligonucleotide; assay: Binding affinity to poly(dAdT)2 DNA (unknown origin) assessed as ratio of fluorescence intensity of compound-polynucleotide complex to fluorescence intensity of compound in sodium cacodylate buffer at pH 7 by fluorescence spectroscopy based Scatchard method; assay type: nucleic-acid assay
[3] = tested on: Poly(dA-dU)oligonucleotide; assay: Binding affinity to polyA-polyU RNA (unknown origin) assessed as ratio of fluorescence intensity of compound-polynucleotide complex to fluorescence intensity of compound in sodium cacodylate buffer at pH 7 by fluorescence spectroscopy based Scatchard method; assay type: nucleic-acid assay
[4] = tested on: Poly(dG-dC)oligonucleotide; assay: Binding affinity to poly(dGdC)2 DNA (unknown origin) in sodium cacodylate buffer at pH 7 by CD spectroscopy; assay type: nucleic-acid assay
[5] = tested on: HEK293; assay: Cytotoxicity against human HEK293 cells assessed as inhibition of cell growth incubated for 72 hrs by MTT assay; assay type: cell-based; conditions: HEK293, 72 h
[6] = tested on: Poly(dA-dU)oligonucleotide; assay: Binding affinity to polyA-polyU RNA (unknown origin) in sodium cacodylate buffer at pH 7 by CD spectroscopy; assay type: nucleic-acid assay
[7] = tested on: Poly(dG-dC)oligonucleotide; assay: Binding affinity to poly(dGdC)2 DNA (unknown origin) assessed as ratio of fluorescence intensity of compound-polynucleotide complex to fluorescence intensity of compound in sodium cacodylate buffer at pH 7 by fluorescence spectroscopy based Scatchard method; assay type: nucleic-acid assay
[8] = tested on: Poly(dA-dT)oligonucleotide; assay: Binding affinity to poly(dAdT)2 DNA (unknown origin) in sodium cacodylate buffer at pH 7 by CD spectroscopy; assay type: nucleic-acid assay
[9] = tested on: Poly(dA-dU)oligonucleotide; assay: Binding affinity to polyA-polyU RNA (unknown origin) assessed as change in melting temperature in sodium cacodylate buffer at pH 7 at compound:polynucleotide concentration ratio of 0.3 by UV/vis spectrophotometric analysis; assay type: nucleic-acid assay
[10] = tested on: Poly(dA-dU)oligonucleotide; assay: Binding affinity to polyA-polyU RNA (unknown origin) assessed as ratio of bound compound to polynucleotide phosphate in sodium cacodylate buffer at pH 7 by fluorescence spectroscopy based Scatchard method; assay type: nucleic-acid assay
[11] = tested on: NCI-H460; assay: Antiproliferative activity against human NCI-H460 cells assessed as inhibition of cell growth incubated for 72 hrs by MTT assay; assay type: functional, cell-based; conditions: NCI-H460, 72 h
[12] = tested on: Quadruplex DNA; assay: Binding affinity to human Tel22 G quadruplex DNA assessed as binding constant in sodium cacodylate buffer at pH 7 at binding stoichiometry ratio of 1:1 by fluorescence spectroscopy; assay type: nucleic-acid assay
[13] = tested on: Calf thymus DNA; assay: Binding affinity to calf thymus DNA assessed as binding constant in sodium cacodylate buffer at pH 7 by fluorescence spectroscopy; conditions: Bos taurus
[14] = tested on: Poly(dA-dT)oligonucleotide; assay: Binding affinity to poly(dAdT)2 DNA (unknown origin) assessed as ratio of bound compound to polynucleotide phosphate in sodium cacodylate buffer at pH 7 by fluorescence spectroscopy based Scatchard method; assay type: nucleic-acid assay
[15] = tested on: Poly(dA-dU)oligonucleotide; assay: Binding affinity to polyA-polyU RNA (unknown origin) assessed as binding constant in sodium cacodylate buffer at pH 7 by fluorescence spectroscopy; assay type: nucleic-acid assay
[16] = tested on: Calf thymus DNA; assay: Binding affinity to calf thymus DNA assessed as ratio of fluorescence intensity of compound-polynucleotide complex to fluorescence intensity of compound in sodium cacodylate buffer at pH 7 by fluorescence spectroscopy based Scatchard method; conditions: Bos taurus
[17] = tested on: Calf thymus DNA; assay: Binding affinity to calf thymus DNA assessed as ratio of bound compound to polynucleotide phosphate in sodium cacodylate buffer at pH 7 by fluorescence spectroscopy based Scatchard analysis; conditions: Bos taurus
[18] = tested on: Poly(dG-dC)oligonucleotide; assay: Binding affinity to poly(dGdC)2 DNA (unknown origin) assessed as binding constant in sodium cacodylate buffer at pH 7 by fluorescence spectroscopy; assay type: nucleic-acid assay
[19] = tested on: Poly(dA-dT)oligonucleotide; assay: Binding affinity to poly(dAdT)2 DNA (unknown origin) assessed as change in melting temperature in sodium cacodylate buffer at pH 7 at compound:polynucleotide concentration ratio of 0.3 by UV/Vis spectrophotometric analysis; assay type: nucleic-acid assay
[20] = tested on: Quadruplex DNA; assay: Binding affinity to human Tel22 G quadruplex DNA assessed as change in melting temperature in sodium cacodylate buffer at pH 7 by UV/Vis spectrophotometric analysis; assay type: nucleic-acid assay
[21] = tested on: Poly(dG-dC)oligonucleotide; assay: Binding affinity to poly(dGdC)2 DNA (unknown origin) assessed as ratio of bound compound to polynucleotide phosphate in sodium cacodylate buffer at pH 7 by fluorescence spectroscopy based Scatchard method; assay type: nucleic-acid assay
[22] = tested on: Quadruplex DNA; assay: Binding affinity to human Tel22 G quadruplex DNA in sodium cacodylate buffer at pH 7 by CD spectroscopy; assay type: nucleic-acid assay
[23] = tested on: Calf thymus DNA; assay: Binding affinity to calf thymus DNA assessed as change in melting temperature in sodium cacodylate buffer at pH 7 at compound:polynucleotide concentration ratio of 0.3 by UV/Vis spectrophotometric analysis; assay type: nucleic-acid assay; conditions: Bos taurus
[24] = tested on: MCF7; assay: Antiproliferative activity against human MCF7 cells assessed as inhibition of cell growth incubated for 72 hrs by MTT assay; assay type: functional, cell-based; conditions: MCF7, 72 h
[25] = tested on: Poly(dA-dT)oligonucleotide; assay: Binding affinity to poly(dAdT)2 DNA (unknown origin) assessed as binding constant in sodium cacodylate buffer at pH 7 by fluorescence spectroscopy; assay type: nucleic-acid assay
[26] = tested on: HCT-116; assay: Antiproliferative activity against human HCT-116 cells assessed as inhibition of cell growth incubated for 72 hrs by MTT assay; assay type: functional, cell-based; conditions: HCT-116, 72 h
[27] = tested on: Quadruplex DNA; assay: Binding affinity to human Tel22 G quadruplex DNA assessed as ratio of fluorescence intensity of compound-polynucleotide complex to fluorescence intensity of compound in sodium cacodylate buffer at pH 7 at binding stoichiometry ratio of 1:2 by fluorescence spectroscopy; assay type: nucleic-acid assay
[28] = tested on: Quadruplex DNA; assay: Binding affinity to human Tel22 G quadruplex DNA assessed as binding constant in sodium cacodylate buffer at pH 7 at binding stoichiometry ratio of 1:2 by fluorescence spectroscopy; assay type: nucleic-acid assay

IC50 [11]: ≥ 100 µM
IC50 [24]: 6 µM
IC50 [26]: 3 µM
SMILES: N#Cc1c(Cl)c2ccccc2n2c1nc1cccnc12

Ratio [1]: 0.77
Ratio [2]: 1.5
Ratio [3]: 2
Activity [4]: Active
Activity [6]: Active
Ratio [7]: < 0.1
Ratio [27]: 0.81
Activity [8]: Active
ΔTm [9]: 15 °C
Ratio [10]: 0.1
IC50 [11]: 0.7 µM
log Ks [12]: 5.04
log Ks [28]: 6.85
Ratio [14]: 0.2
log Ks [15]: 6.6
log Ks [18]: 6.8
ΔTm [19]: 14.3 °C
Ratio [21]: 0.3
ΔTm [23]: 7.5 °C
IC50 [24]: 0.4 µM
log Ks [25]: 6.8
IC50 [26]: 0.4 µM
SMILES: N#Cc1c(N2CCNCC2)c2ccc(N3CCNCC3)cc2n2c1nc1cccnc12
IC50 [5]: 0.2 µM
log Ks [13]: 6.3
Ratio [16]: 0.1
Ratio [17]: 0.3

IC50 [11]: ≥ 100 µM
IC50 [24]: 16 µM
IC50 [26]: 47 µM
SMILES: N#Cc1c(N2CCCCC2)c2ccccc2n2c1nc1cccnc12

IC50 [11]: ≥ 100 µM
IC50 [24]: ≥ 100 µM
IC50 [26]: ≥ 100 µM
SMILES: N#Cc1c(N2CCCCC2)c2ccccc2n2c1nc1ncccc12

IC50 [11]: 49 µM
IC50 [24]: 5 µM
IC50 [26]: 10 µM
SMILES: N#Cc1cc2ccc(N3CCCCC3)cc2n2c1nc1ncccc12

IC50 [11]: 1.8 µM
IC50 [24]: 4.7 µM
IC50 [26]: 3.6 µM
SMILES: N#Cc1c(N2CCNCC2)c2ccccc2n2c1nc1cccnc12

IC50 [11]: ≥ 100 µM
IC50 [24]: 0.5 µM
IC50 [26]: 1 µM
SMILES: N#Cc1c(N2CCCCC2)c2ccc(N3CCCCC3)cc2n2c1nc1cccnc12
IC50 [5]: > 100 µM

The remaining lines, values behind:

SMILES: CN(C)CCCNc1ccc2cc(C#N)c3nc4ncccc4n3c2c1
Ratio [1]: 0.66
Ratio [2]: 0.8
Ratio [3]: 0.8
Activity [4]: Active
IC50 [5]: 4 µM
Activity [6]: Active
Ratio [7]: 0.4
Activity [8]: Active
ΔTm [9]: 4.5 °C
Ratio [10]: 0.4
IC50 [11]: 11 µM
log Ks [12]: 5.35
log Ks [13]: 6
Ratio [14]: 0.4
log Ks [15]: 5.5
Ratio [16]: 0.5
Ratio [17]: 0.4
log Ks [18]: 5.6
ΔTm [19]: 9.9 °C
ΔTm [20]: 2 °C
Ratio [21]: 0.4
Activity [22]: Active
ΔTm [23]: 4.2 °C
IC50 [24]: 12 µM
log Ks [25]: 6.4
IC50 [26]: 2.3 µM

SMILES: CC(C)CNc1ccc2cc(C#N)c3nc4cccnc4n3c2c1
IC50 [5]: 0.5 µM
IC50 [11]: 0.3 µM
IC50 [24]: 0.4 µM
IC50 [26]: 0.5 µM

SMILES: CC(C)CNc1c(C#N)c2nc3ncccc3n2c2ccccc12
Ratio [1]: 4.75
Ratio [2]: 8.3
Ratio [3]: 7.1
Activity [4]: inactive
IC50 [5]: > 100 µM
Ratio [7]: 0.5
Activity [8]: Active
ΔTm [9]: 0.6 °C
Ratio [10]: 0.1
IC50 [11]: 17.5 µM
log Ks [12]: 4.69
log Ks [13]: 4.5
Ratio [14]: < 0.1
log Ks [15]: 4.7
Ratio [16]: 2.2
Ratio [17]: < 0.1
log Ks [18]: 5.5
ΔTm [19]: 0 °C
ΔTm [20]: 1.4 °C
Ratio [21]: < 0.1
Activity [22]: Active
ΔTm [23]: 0 °C
IC50 [24]: 14 µM
log Ks [25]: 5.1
IC50 [26]: 14 µM

SMILES: CN(C)CCCNc1c(C#N)c2nc3cccnc3n2c2ccccc12
IC50 [5]: 1.8 µM
IC50 [11]: 1.4 µM
IC50 [24]: 2.9 µM
IC50 [26]: 0.9 µM

SMILES: CC(C)CNc1ccc2c(NCC(C)C)c(C#N)c3nc4ncccc4n3c2c1
IC50 [11]: 7.6 µM
Activity [22]: Active
IC50 [24]: 2 µM
IC50 [26]: 3.7 µM

SMILES: N#Cc1cc2ccc(F)cc2n2c1nc1cccnc12
IC50 [11]: ≥ 100 µM
IC50 [24]: ≥ 100 µM
IC50 [26]: 5 µM
